Measurements as given in patent EP2131651B1 (Sarentis Therapeutics, Inc., priority 2007, dated 2013).
Square brackets hold non-standard residues; d marks the D form. Peptide text beside a SMILES is read from it. Ala(indol-4-yl) = N[C@@H](Cc1cccc2[nH]ccc12)C(=O)O; NMeR = CN[C@@H](CCCNC(=N)N)C(=O)O; Tle = CC(C)(C)[C@H](N)C(=O)O; Dab = NCC[C@H](N)C(=O)O

Columns and labels:
intact rabbit cornea = assay: In vitro cytotoxicity study, percentage of living cells; format: cell-based; conditions: for corneal cells died, compared to untreated cells: 0.1, 0.25 and 0.5 mg/ml, 24 hour period, FIGURE 10B; for death of corneal cells: FIGURE 10A
Procedure: In vitro cytotoxicity studies were performed in intact rabbit cornea. Proparacaine (0.5 mM, 1 mM, 5 mM, and 10 mM), tetracaine (0.5 mM, 1 mM, 5 mM, and 10 mM), NT71 (0.1 mg/ml (0.13 mM), 0.25 mg/ml (0.32 mM), and 0.5 mg/ml (0.63 mM)), NT72 (0.1 mg/ml (0.15 mM), 0.25 mg/ml (0.38 mM), and 0.5 mg/ml (0.76 mM)), and 70% MeOH were added to intact rabbit corneas. The percentage of living cells was determined over a 24 hour period using light microscopy and fluorescence. As apparent from FIGURE 10A, tetracaine was cytotoxic to the corneal cells at concentrations as low as 0.5 mM, resulting in the death of about half of the corneal cells observed.

rabbit cornea [1] = assay: In vivo superficial keratotomy, administration every 4 hours for 5 days; design: species or system rabbits
Description: Anesthetized rabbits were placed under an operating microscope, a sterile lid speculum placed in the right eye, and a 6.5 mm trephine used to make a partial thickness epithelial cut centered on the pupil. A sterile beaver blade was used to remove the epithelium within the area of demarcation. A single drop of moxifloxacin 0.1% was instilled at the end of the procedure. The speculum was removed and the animal allowed to recover from the systemic anesthesia. The topical agent under investigation was placed in the eye every 4 hours for 5 days. […] The control animals underwent the same surgical procedure. At the end of the procedure, 0.5% proparacaine or vehicle was instilled in the eye every 4 hours.
Fluorescein (1%) was instilled into the eye at times 0, 1, 2, 6, 12, 36, 48, 72, 96, and 120 hours after the procedure and the size of the epithelial defect measured via slit lamp photography. The animals were scored for degree of blinking, tearing, conjunctival injection, anterior chamber inflammation, and intraocular pressure.

[2] = system: primary rabbit corneal epithelial cells; assay: In vitro scratch assay, cell migration and scratch closure; format: cell-based; conditions: 0.1 mg/ml and 0.5 mg/ml; FIGURES 7-9
Procedure: The limbus was removed from both eyes of anesthetized rabbits and dissected to include 1.0 to 1.5 mm peripheral cornea and 1.0 to 1.5 mm beyond the anatomical limbus. Each limbus was divided into four small segments. Two segments were used for each 60 mm square plate.
Cultured rabbit corneal epithelial cells were utilized to measure the closure of a scratch made in a confluent epithelial monolayer in the presence of varying doses of the test compounds (0.1 mg/ml to 10 mg/ml). Uniform scratches were made in confluent monolayers of primary rabbit corneal epithelial cells ("in vitro scratch assay").
Individual cell migration assays were performed in the presence of the test compounds and compared with standard doses of tetracaine and proparacaine. Movement of cells from the edge of the scratch (wound) toward the middle of the scratch (wound) were measured over 24 hours. […] Cells in which NT71 and NT72 were added migrated at least 40 µm, alternatively at least 50 µm, alternatively at least 60 µm, alternatively at least 70 µm over 24 hours.
There was very little closure of the wounds in which proparacaine and tetracaine were added. […] In contrast, control cells substantially closed the defect within 24 hours.

rabbit cornea [3] = assay: In vivo superficial keratotomy, administration every 2 hours for 36 hours; design: species or system rabbits
Procedure: In vivo superficial keratotomy experiments were performed on rabbits to access healing effects in an animal model.
Starting with equivalent circular wounds of 6.5 mm diameter (33 mm^2), after 36 hrs of administration every 2 hours of 1 mg/mL NT71(SAR001), NT72 (SAR002), tetracaine or saline (control), the persistent epithelial defect (wound) size was: • Control (saline) 4 mm^2 • Tetracaine 14.4 mm^2 • SAR001 2.8 mm^2 • SAR002 4.8 mm^2

rabbit cornea [4] = assay: Wound healing after excimer laser keratectomy; format: in vivo, rabbits
Procedure: Anesthetized rabbits were placed under an operating microscope, a sterile lid speculum placed in the right eye, and a 6.5 mm excimer laser ablation of 75 microns centered on the pupil was made using a Ladarvision 4000 excimer laser. A single drop of moxifloxacin 0.1 % was used at the end of the procedure. SAR001 (NT71, 0.1% w/w), SAR002 (NT72, 0.1 % w/w), or NT69 was instilled at the end of the procedure and repeated at 4 hour intervals. Control animals underwent the same surgical procedure. Standard doses of tetracaine (0.5% w/w) or proparacaine (not shown) were instilled at the end of the procedure and at 4 hour intervals thereafter.
Fluorescein (1%) was instilled into the right eye at times 0, 1, 2, 6, 12, 36, 48, 72, 96, and 120 hours after the procedure and the size of the epithelial defect measured via slit lamp photography. Degree of blinking, tearing, conjunctival injection, anterior chamber inflammation, and intraocular pressure were evaluated.

CN[C@@H](CCCNC(=N)N)C(=O)N[C@@H](CCN)C(=O)N1CCC[C@H]1C(=O)N[C@@H](Cc1cccc2[nH]ccc12)C(=O)N[C@H](C(=O)N[C@@H](CC(C)C)C(=O)O)C(C)(C)C [NT71] (H-[NMeR][Dab]P[Ala(indol-4-yl)][Tle]L-OH)
corneal cells died, compared to untreated cells (intact rabbit cornea): < 20%

CC(C)C[C@H](NC(=O)[C@@H](NC(=O)[C@H](Cc1cccc2[nH]ccc12)NC(=O)[C@@H]1CCCN1C(=O)[C@H](N)CCCCN)C(C)(C)C)C(=O)O [NT72] (H-[dK]P[Ala(indol-4-yl)][Tle]L-OH)
corneal cells died, compared to untreated cells (intact rabbit cornea): < 20%

CCCOc1ccc(C(=O)OCCN(CC)CC)cc1N [proparacaine]
animals with incomplete disappearance of the defect (rabbit cornea [1]; at 96-120 hours, 0.5% proparacaine every 4 hours): 40% | time to disappearance of epithelial defect (rabbit cornea [1]; every 4 hours for 5 days, neurotensin analogs 0.6 mg/ml, proparacaine 0.5%): 96 to 120 h | death of corneal cells (intact rabbit cornea; 5 mM): almost all | closure of scratch [2]: did not close

CCCCNc1ccc(C(=O)OCCN(C)C)cc1 [tetracaine]
death of corneal cells (intact rabbit cornea; 0.5 mM): about half | death of corneal cells (intact rabbit cornea; 1 mM): almost all | closure of scratch [2]: did not close | rate of scratch closure as compared to control [2]: greatest delay in monolayer closure | persistent epithelial defect (wound) size (rabbit cornea [3]; after 36 hrs, 1 mg/mL every 2 hours, starting wound 33 mm^2): 14.4 mm^2 | state of wound (rabbit cornea [3]; after 48 hours): residual epithelial defect was still present | time to disappearance of epithelial defect (rabbit cornea [4]; instilled at 4 hour intervals, SAR001, SAR002 0.1% w/w, tetracaine 0.5% w/w, FIGURE 11): 96 to 110 h | animals with incomplete disappearance of the defect (rabbit cornea [4]; tetracaine 0.5% w/w at 4 hour intervals): 50%
